Assay results from patent US11732000B2, “Oxysterols and methods of use thereof” (Sage Therapeutics, Inc., priority 2015, dated 2023).

Target: T1, GlunN1/GluN2A glutamate receptors (Homo sapiens, UniProt Q05586+Q12879)
T1 construct: expressed in transfected cells
Assay: NMDA potentiation, whole-cell patch clamp of mammalian cells (IonWorks Barracuda, IWB)
Assay type: cell-based
Settings: 3 μM test article, HEK293 cells expressing human GRIN1/GRIN2A, co-application with EC20 L-glutamate and 30 μM glycine; for activation at 3 µM: read-out: GluN2A PCA IWB Ephys % potentiation at 3 μM
Experimental: NMDA potentiation was assessed using either whole cell patch clamp of mammalian cells which expressed NMDA receptors.
Whole-Cell Patch Clamp of Mammalian Cells (IONWORKS BARRACUDA® (IWB))
The whole-cell patch-clamp technique was used to investigate the effects of compounds GlunN1/GluN2A glutamate receptors expressed in mammalian cells.
HEK293 cells were transformed with adenovirus 5 DNA and transfected with cDNA encoding the human GRIN1/GRIN2A genes. Stable transfectants were selected using G418 and ZEOCIN™ (phleomycins)-resistance genes incorporated into the expression plasmid and selection pressure maintained with G418 and ZEOCIN™ (phleomycins) in the medium. Cells were cultured in Dulbecco's Modified Eagle Medium/Nutrient Mixture (D-MEM/F-12) supplemented with 10% fetal bovine serum, 100 μg/ml penicillin G sodium, 100 μg/ml streptomycin sulphate, 100 μg/ml Zeocin, 5 μg/ml blasticidin and 500 μg/ml G418.
Test article effects were evaluated in 8-point concentration-response format (4 replicate wells/concentration). All test and control solutions contained 0.3% DMSO and 0.01% KOLLIPHOR® (polyethoxylated castor oil) EL (C5135, Sigma). The test article formulations were loaded in a 384-well compound plate using an automated liquid handling system (SCICLONE® ALH3000, Caliper Life Sciences). The measurements were performed using IWB platform following this procedure:
Electrophysiological Procedures:
• a) Intracellular solution (mM): 50 mM CsCl, 90 mM CsF, 2 mM MgCl2, 5 mM EGTA, 10 mM HEPES. Adjust to pH 7.2 with CsOH. • b) Extracellular solution, HB-PS (composition in mM): NaCl, 137; KCl, 1.0; CaCl2), 5; HEPES, 10; Glucose, 10; pH adjusted to 7.4 with NaOH (refrigerated until use). • c) Holding potential: −70 mV, potential during agonist/PAM application: −40 mV. Recording Procedure: • a) Extracellular buffer will be loaded into the PPC plate wells (11 μL per well). Cell suspension will be pipetted into the wells (9 μL per well) of the PPC planar electrode. • b) Whole-cell recording configuration will be established via patch perforation with membrane currents recorded by on-board patch clamp amplifiers. • c) Two recordings (scans) will be performed. First, during pre-application of test article alone (duration of pre-application −5 min) and second, during test articles and agonist (EC20 L-glutamate and 30 μM glycine) co-application to detect positive modulatory effects of the test article.
Test Article Administration: The first pre-application will consist of the addition of 20 μL of 2× concentrated test article solution and, second, of 20 μL of 1× concentrated test article and agonist at 10 μL/s (2 second total application time).

T1 sequence (Q12879 23-1464, other chains not shown): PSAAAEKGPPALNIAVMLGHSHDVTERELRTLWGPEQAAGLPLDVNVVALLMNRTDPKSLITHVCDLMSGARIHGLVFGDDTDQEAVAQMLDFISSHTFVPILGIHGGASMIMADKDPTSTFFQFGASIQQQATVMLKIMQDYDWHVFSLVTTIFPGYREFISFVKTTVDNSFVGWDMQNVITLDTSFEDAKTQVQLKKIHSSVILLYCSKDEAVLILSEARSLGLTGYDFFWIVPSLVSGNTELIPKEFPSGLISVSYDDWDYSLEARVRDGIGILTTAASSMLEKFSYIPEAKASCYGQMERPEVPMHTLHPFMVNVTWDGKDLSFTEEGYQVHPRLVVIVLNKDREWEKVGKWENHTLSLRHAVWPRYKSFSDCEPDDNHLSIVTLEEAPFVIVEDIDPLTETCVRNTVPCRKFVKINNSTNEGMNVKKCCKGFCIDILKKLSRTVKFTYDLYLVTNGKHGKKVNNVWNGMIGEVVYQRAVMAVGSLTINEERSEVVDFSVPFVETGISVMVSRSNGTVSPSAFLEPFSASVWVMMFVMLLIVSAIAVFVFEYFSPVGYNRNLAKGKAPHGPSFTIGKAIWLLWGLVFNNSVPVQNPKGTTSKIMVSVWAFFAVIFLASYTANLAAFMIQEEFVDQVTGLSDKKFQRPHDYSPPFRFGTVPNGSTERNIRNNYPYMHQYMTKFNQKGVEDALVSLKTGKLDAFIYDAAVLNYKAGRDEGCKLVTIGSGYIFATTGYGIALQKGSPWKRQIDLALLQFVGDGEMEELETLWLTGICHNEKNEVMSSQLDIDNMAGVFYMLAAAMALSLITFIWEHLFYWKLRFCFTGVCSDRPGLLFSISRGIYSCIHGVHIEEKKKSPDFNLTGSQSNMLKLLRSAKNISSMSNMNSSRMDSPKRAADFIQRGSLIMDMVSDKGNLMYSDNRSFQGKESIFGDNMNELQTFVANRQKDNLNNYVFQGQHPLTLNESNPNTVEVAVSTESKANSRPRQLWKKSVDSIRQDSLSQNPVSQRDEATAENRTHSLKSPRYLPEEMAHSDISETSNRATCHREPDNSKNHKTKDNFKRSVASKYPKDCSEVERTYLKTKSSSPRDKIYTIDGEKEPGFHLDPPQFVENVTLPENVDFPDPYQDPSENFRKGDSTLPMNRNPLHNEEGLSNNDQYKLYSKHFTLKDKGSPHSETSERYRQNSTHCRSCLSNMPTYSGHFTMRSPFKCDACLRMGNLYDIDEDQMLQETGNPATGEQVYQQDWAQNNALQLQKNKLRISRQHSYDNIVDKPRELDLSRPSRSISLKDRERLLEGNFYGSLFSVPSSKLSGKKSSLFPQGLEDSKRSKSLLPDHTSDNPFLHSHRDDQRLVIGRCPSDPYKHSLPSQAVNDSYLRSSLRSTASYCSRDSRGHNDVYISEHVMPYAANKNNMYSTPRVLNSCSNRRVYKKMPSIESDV

SMILES	activation at 3 µM [%]	GluN2A PCA IWB Ephys % potentiation at 3 μM
C[C@H](CC[C@@H](O)C1CCC1)[C@H]1CC[C@H]2[C@@H]3CC=C4C[C@@](C)(O)CC[C@]4(C)[C@H]3CC[C@]12C [Compound 41-B]	> 150	
CC[C@]1(O)CC[C@@]2(C)[C@@H](CC[C@@H]3[C@@H]2CC[C@]2(C)[C@@H]([C@H](C)CC[C@H](O)C(C)C)CC[C@@H]32)C1 [Compound 13]	> 150	
C[C@H](CCC(O)C1CC1)[C@H]1CC[C@H]2[C@@H]3CC[C@H]4C[C@@](C)(O)CC[C@]4(C)[C@H]3CC[C@]12C (stereo partly shown) [Compound 30]	> 150	
C[C@H](CC[C@@H](O)C1CC1)[C@H]1CC[C@H]2[C@@H]3CC=C4C[C@@](C)(O)CC[C@]4(C)[C@H]3CC[C@]12C [Compound 29]		B (“B” indicates potentiation of >75% to 150%)
CC[C@]1(O)CC[C@@]2(C)[C@@H](CC[C@@H]3[C@@H]2CC[C@]2(C)[C@@H]([C@H](C)CC[C@@H](O)C(C)C)CC[C@@H]32)C1 [Compound 15]		C (“C” indicates potentiation of >150%)
C[C@H](CC[C@H](O)C1CC1)[C@H]1CC[C@H]2[C@@H]3CC=C4C[C@@](C)(O)CC[C@]4(C)[C@H]3CC[C@]12C [Compound 28]		C (“C” indicates potentiation of >150%)
CC[C@]1(O)CC[C@@]2(C)C(=CC[C@H]3[C@@H]4CC[C@H]([C@H](C)CC[C@H](O)C(C)C)[C@@]4(C)CC[C@@H]32)C1 [Compound 10]	> 150	
CC[C@]1(O)CC[C@@]2(C)[C@@H](CC[C@@H]3[C@@H]2CC[C@]2(C)[C@@H]([C@H](C)CCC(C)O)CC[C@@H]32)C1 (stereo partly shown) [Compound 33]	10 to 75	
CC[C@]1(O)CC[C@@]2(C)C(=CC[C@H]3[C@@H]4CC[C@H]([C@H](C)CC[C@@H](O)C(C)C)[C@@]4(C)CC[C@@H]32)C1 [Compound 11]	> 150	
CC(C)[C@H](O)CC[C@@H](C)[C@H]1CC[C@H]2[C@@H]3CC=C4C[C@@](C)(O)CC[C@]4(C)[C@H]3CC[C@]12C [Compound 19]	> 150	
C[C@H](CC[C@@H](O)CC(F)(F)F)[C@H]1CC[C@H]2[C@@H]3CC[C@H]4C[C@@](C)(O)CC[C@]4(C)[C@H]3CC[C@]12C [Compound 48]	> 150	
CCC(O)CC[C@@H](C)[C@H]1CC[C@H]2[C@@H]3CC[C@H]4C[C@](O)(CC)CC[C@]4(C)[C@H]3CC[C@]12C (stereo partly shown) [Compound 34]	> 150	
C[C@H](CC[C@@H](O)CC(F)(F)F)[C@H]1CC[C@H]2[C@@H]3CC=C4C[C@@](C)(O)CC[C@]4(C)[C@H]3CC[C@]12C [Compound 46]	> 150	
CC[C@H](O)CC[C@@H](C)[C@H]1CC[C@H]2[C@@H]3CC[C@H]4C[C@@](C)(O)CC[C@]4(C)[C@H]3CC[C@]12C [Compound 9]	75 to 150	
CC[C@]1(O)CC[C@@]2(C)C(=CC[C@H]3[C@@H]4CC[C@H]([C@H](C)CC[C@@H](O)CC(F)(F)F)[C@@]4(C)CC[C@@H]32)C1 [Compound 54]	> 150	
CC[C@]1(O)CC[C@@]2(C)C(=CC[C@H]3[C@@H]4CC[C@H]([C@H](C)CC[C@@H](O)C5CC5)[C@@]4(C)CC[C@@H]32)C1 [Compound 26]		C (“C” indicates potentiation of >150%)

SMILES	activation at 3 µM [%]	GluN2A PCA IWB Ephys % potentiation at 3 μM
C[C@H](CCC(O)C1CCOCC1)[C@H]1CC[C@H]2[C@@H]3CC=C4C[C@@](C)(O)CC[C@]4(C)[C@H]3CC[C@]12C (stereo partly shown) [Compound 44]	> 150	
C[C@H](CC[C@H](O)C1CCOCC1)[C@H]1CC[C@H]2[C@@H]3CC=C4C[C@@](C)(O)CC[C@]4(C)[C@H]3CC[C@]12C [Compound 44-A]		C (“C” indicates potentiation of >150%)
C[C@H](CC[C@H](O)CC(F)(F)F)[C@H]1CC[C@H]2[C@@H]3CC[C@H]4C[C@@](C)(O)CC[C@]4(C)[C@H]3CC[C@]12C [Compound 47]	> 150	
CC[C@]1(O)CC[C@@]2(C)[C@@H](CC[C@@H]3[C@@H]2CC[C@]2(C)[C@@H]([C@H](C)CCC(O)C4CC4)CC[C@@H]32)C1 (stereo partly shown) [Compound 38]	> 150	
CC[C@H](O)CC[C@@H](C)[C@H]1CC[C@H]2[C@@H]3CC=C4C[C@](O)(CC)CC[C@]4(C)[C@H]3CC[C@]12C [Compound 23]	> 150	
CC[C@H](O)CC[C@@H](C)[C@H]1CC[C@H]2[C@@H]3CC[C@H]4C[C@](O)(CC)CC[C@]4(C)[C@H]3CC[C@]12C [Compound 36]	> 150	
CC[C@]1(O)CC[C@@]2(C)[C@@H](CC[C@@H]3[C@@H]2CC[C@]2(C)[C@@H]([C@H](C)CC[C@H](O)C4CC4)CC[C@@H]32)C1 [Compound 39]	10 to 75	
CC[C@]1(O)CC[C@@]2(C)C(=CC[C@H]3[C@@H]4CC[C@H]([C@H](C)CC[C@H](O)CC(F)(F)F)[C@@]4(C)CC[C@@H]32)C1 [Compound 53]		C (“C” indicates potentiation of >150%)
CC[C@]1(O)CC[C@@]2(C)[C@@H](CC[C@@H]3[C@@H]2CC[C@]2(C)[C@@H]([C@H](C)CC[C@@H](O)C4CC4)CC[C@@H]32)C1 [Compound 40]	> 150	
CC[C@]1(O)CC[C@@]2(C)C(=CC[C@H]3[C@@H]4CC[C@H]([C@H](C)CC[C@H](O)C5CC5)[C@@]4(C)CC[C@@H]32)C1 (single isomer, unassigned) [Compound 25]		C (“C” indicates potentiation of >150%)
C[C@H](CC[C@H](O)CC(F)(F)F)[C@H]1CC[C@H]2[C@@H]3CC=C4C[C@@](C)(O)CC[C@]4(C)[C@H]3CC[C@]12C [Compound 45]	> 150	
CC[C@@H](O)CC[C@@H](C)[C@H]1CC[C@H]2[C@@H]3CC[C@H]4C[C@](O)(CC)CC[C@]4(C)[C@H]3CC[C@]12C [Compound 35]	75 to 150	
C[C@H](CC[C@@H](O)C1CC1)[C@H]1CC[C@H]2[C@@H]3CC[C@H]4C[C@@](C)(O)CC[C@]4(C)[C@H]3CC[C@]12C [Compound 32]		C (“C” indicates potentiation of >150%)
C[C@H](CC[C@H](O)C1CCC1)[C@H]1CC[C@H]2[C@@H]3CC=C4C[C@@](C)(O)CC[C@]4(C)[C@H]3CC[C@]12C [Compound 41-A]		C (“C” indicates potentiation of >150%)
CC[C@]1(O)CC[C@@]2(C)C(=CC[C@H]3[C@@H]4CC[C@H]([C@H](C)CCC(O)CC(F)(F)F)[C@@]4(C)CC[C@@H]32)C1 (stereo partly shown) [Compound 52]	> 150	
